{
  "source": "patent US20040092548A1",
  "about": "“OPHTHALMIC TREATMENT” (priority 1995, published 2004)",
  "key": {"[1]": {"tested_on": "white New Zealand rabbits", "experiment": "Mydriatic response (pupil dilation, RRmax) after ocular dosing of ephedrine hydrochloride", "assay_type": "in vivo", "conditions": "5 μl of 5% solution (250 μg) as droplet stream compared with 5 μl 5% and 25 μl 1% instillates (250 μg each); rabbit", "experimental": "Six white New Zealand rabbits were administered with the following dosage regimen:\nI→25 μl of 1% aqueous ephedrine hydrochloride solution (250 μg) via pipette (instillate)\nII→5 μl of 5% aqueous ephedrine hydrochloride solution (250 μg) via pipette (instillate)\nIII→5 μl of 5% aqueous ephedrine hydrochloride solution (250 μg) in a jet/stream of droplets of diameter in the range 200 to 400 μm.\nPupil diameter measurements were determined from photographs acquired using a Pentax ME super 35 mm camera fitted with a SMC Pentax 50 mm lens and a 2x converter. An aperture setting of 12, and a shutter speed of 1/15 was employed with a film speed of ISO 400 (Kodak Gold 400). The camera was held stationary on a tripod and positioned approximately 30-40 cm from the rabbits eye. Prior to each dosing period the animals were acclimatised to experimental conditions (constant light intensity, minimal distractions) for 20 min. The rabbits were placed in restraining boxes and settled before photographs and baseline pupil diameters were determined 5 min prior to dosing.\nPupillary diameters were determined from the developed colour prints (6×4) using an electronic micrometer (Digimatic Caliper, Mitutoyo Corp., Japan). […] The maximum response ratio (RRmax) for pupil dilation was then calculated from the photographs using the following relationship: […]"}, "[2]": {"tested_on": "white New Zealand rabbits", "experiment": "Miotic response (pupil diameter) after ocular dosing of pilocarpine hydrochloride, randomised cross-over study", "assay_type": "in vivo", "conditions": "rabbit; for AUC (0-4 hours), area under the pupillary diameter vs. time curve / RR max: ± SD", "experimental": "Ten white New Zealand rabbits were treated with the following dosage regimen in a randomised cross-over study:\n30 μl of 1% aqueous pilocarpine hydrochloride solution (300 μg) was instilled via pipette into the conjunctival sac 5 μl of 1% aqueous pilocarpine hydrochloride solution (50 μg) was applied as a jet and/or stream of droplets (with a diameter in the range of 200 μm to 400 μm) to the surface of the cornea.\nIn order to determine pupil diameters, a metallic rule with a circular aperture of known diameter was orientated perpendicular to, and at an appropriate fixed distance from, a video camera fitted with a macro lens (Sony V8 Pro-CDD-V100E) throughout the study. During miotic measurements, the animals were positioned such that the left eye was parallel to the ruler and equidistant from the video camera. The video camera was actuated to project and amplify images of both the reference aperture and left eye onto the monitor screen. The diameters of both the reference aperture and pupil were then measured on the screen using a ruler placed on the projected image at an angle of approximately […]. The value of the pupil diameter was then calculated by multiplying the projected screen pupil diameter by the ratio of the actual reference diameter (8 mm) to the projected screen reference diameter (18 mm).\nPupil measurements were taken at approximately 60, 45, 30 and 15 minute intervals prior to administration of the treatments to provide a baseline value, and then at 15 minute intervals for the first hour after dosing. Thereafter, the pupil diameter was measured at 30 minute intervals for a minimum duration of 4 hours after dose administration.\nFor the purpose of statistical analysis of variants between treatments, the following parameters were determined: RR max=(pupil diameter at time t−pupil diameter at time 0)/pupil diameter at time 0; T max=the first time point at which the smallest pupillary diameter was observed; and AUC (0-4 hours)=the area under the pupillary diameter vs. time curve between 0 and 4 hours after treatment.\nAll significance tests were two-tailed and were performed at the 5% significance level. The statistical software SAS V607 and the PROC GLM procedure were used in the analysis."}, "[3]": {"experiment": "Ocular distribution study of tritiated propranolol hydrochloride", "assay_type": "in vivo, rabbit", "experimental": "40 μl of 0.5% aqueous tritiated propranolol hydrochloride solution (200 μg) was administered via pipette into the conjunctival sac of twelve New Zealand white rabbit eyes. Seperately, 5 μl of 4% aqueous tritiated propranolol hydrochloride solution (200 μg) was applied as a jet or stream of droplets (with a diameter in the range of 200 μm to 400 μm) to the surface (cornea and/or conjunctiva) of twelve different New Zealand white rabbit eyes\nFollowing each treatment, four eyes were ennucleated after 15 minutes, four after 30 minutes and the remaining four after 60 minutes. In each case, the animals were humanely killed prior to the ocular ennucleation procedure via an overdose of sodium pentobarbitol injected into a marginal ear vein. Each eye was then irrigated by instilling 100 μl of normal saline into the conjunctival sac using an automatic pipette and immediately blotting away excess saline with paper tissue to remove any radioactivity in the tear film. Following ennucleation and removal of the adnexal tissue, the cornea was washed with a second 100 μl of normal saline. The aqueous humor was then quickly removed by paracentesis with a 1 ml syringe and 26G needle. To this was then added an equal volume of trichloroacetic acid (TCA) solution (10% w/v) to bring the final concentration to 5% w/v TCA. Both eyes were then dissected from the posterior pole to allow removal of the vitreous humor and the lens, whilst the iris-cilary body was transferred to a tared sample tube. The cornea was then removed using a 12 mm trephine, and the limbal cornea and conjunctiva (with underlying sclera) cut free into a strip approximately 5 mm wide using a scalpel and scissors. Each sample was then weighed in a tared sample tube and at least 5 volumes of TCA (6% w/v) added. All tissue samples were subjected to sonication for 5 minutes, then centrifuged at 10 000 g.min. to yield a supernatent. Each supernatent was then extracted 3 times with 3 volumes of ether and, after evaporation of residual solvent, the aqueous residue was sampled and added to 5 ml of FluoronSafe XE “Scintron” scintillation fluid (BDH Chemicals, UK). Radioactivity was then determined by counting in a Packard 1600DR beta-scintillation counter. Data gathered as counts per minute was then converted into disintegrations per minute (dpm), using external standardisation, and expressed as dpm […] after adjusting for the total radioactivity in each dose. Due to the small number of samples per time point per treatment, statistical analysis was not considered appropriate for this study.\nThe results of this study are summarised for the different ocular tissues in tables 1 to 4 below, where the values shown represent dpm (disintegrations per minute) per mg of tissue."}, "[4]": {"conditions": "cited from earlier work"}, "[5]": {"conditions": "1% 5 μl jet and/or stream of droplets (50 μg) to cornea"}, "[6]": {"conditions": "1% 30 μl large eyedrop (300 μg) instilled into conjunctival sac"}, "[7]": {"conditions": "0.5% 40 μl large eyedrop (200 μg), 15 mins"}, "[8]": {"conditions": "0.5% 40 μl large eyedrop (200 μg), 30 mins"}, "[9]": {"conditions": "0.5% 40 μl large eyedrop (200 μg), 60 mins"}, "[10]": {"conditions": "4.0% 5 μl jet and/or stream of droplets (200 μg), 15 mins"}, "[11]": {"conditions": "4.0% 5 μl jet and/or stream of droplets (200 μg), 30 mins"}, "[12]": {"conditions": "4.0% 5 μl jet and/or stream of droplets (200 μg), 60 mins"}, "[13]": {"conditions": "5 μl eye drop loaded with 26.1 μg"}},
  "note": "Structures can show the parent of a compound that is named as a salt.",
  "data": [
    {"molecule": "CN[C@@H](C)[C@H](O)c1ccccc1", "note": "[Ephedrine, ephedrine hydrochloride]", "values": [
      {"measurement": "Mydriatic response (RRmax vs time, FIG. 1)", "setting": "[1]", "result": "more pronounced and maintained over a longer duration compared to both instillates"}
    ]},
    {"molecule": "CC[C@@H]1C(=O)OC[C@@H]1Cc1cncn1C", "note": "[Pilocarpine, pilocarpine hydrochloride]", "values": [
      {"measurement": "AUC (0-4 hours), area under the pupillary diameter vs. time curve", "setting": "[2]; [5]", "result": "3827 ± 312", "unit": "mmMin."},
      {"measurement": "RR max", "setting": "[2]; [5]", "result": "12.3 ± 5.2", "unit": "%"},
      {"measurement": "AUC (0-4 hours), area under the pupillary diameter vs. time curve", "setting": "[2]; [6]", "result": "3871 ± 340", "unit": "mmMin."},
      {"measurement": "RR max", "setting": "[2]; [6]", "result": "15.2 ± 4.0", "unit": "%"},
      {"measurement": "Pupil diameter after administration", "setting": "[2]; both dose forms (30 μl eyedrop 300 μg; 5 μl jet 50 μg), after 15 minutes", "result": "reduction in pupil diameter was evident"},
      {"measurement": "Time after treatment at which the miotic effect started to disappear", "setting": "[2]; both dose forms", "result": "60 to 90", "unit": "min"},
      {"measurement": "Time after which pupil measurements had fully recovered to predose levels", "setting": "[2]; both dose forms", "result": 120, "unit": "min"}
    ]},
    {"molecule": "CC(C)NCC(O)COc1cccc2ccccc12", "note": "(centres unmarked) [Propranolol, propranolol hydrochloride]", "values": [
      {"measurement": "Radioactivity in aqueous humor", "setting": "[3]; [7]", "result": "1310 dpm per mg of tissue"},
      {"measurement": "Radioactivity in conjunctiva/sclera", "setting": "[3]; [7]", "result": "2569 dpm per mg of tissue"},
      {"measurement": "Radioactivity in cornea", "setting": "[3]; [7]", "result": "5579 dpm per mg of tissue"},
      {"measurement": "Radioactivity in iris-cilary body", "setting": "[3]; [7]", "result": "942 dpm per mg of tissue"},
      {"measurement": "Radioactivity in aqueous humor", "setting": "[3]; [8]", "result": "960 dpm per mg of tissue"},
      {"measurement": "Radioactivity in conjunctiva/sclera", "setting": "[3]; [8]", "result": "2838 dpm per mg of tissue"},
      {"measurement": "Radioactivity in cornea", "setting": "[3]; [8]", "result": "3467 dpm per mg of tissue"},
      {"measurement": "Radioactivity in iris-cilary body", "setting": "[3]; [8]", "result": "1033 dpm per mg of tissue"},
      {"measurement": "Radioactivity in aqueous humor", "setting": "[3]; [9]", "result": "705 dpm per mg of tissue"},
      {"measurement": "Radioactivity in conjunctiva/sclera", "setting": "[3]; [9]", "result": "1380 dpm per mg of tissue"},
      {"measurement": "Radioactivity in cornea", "setting": "[3]; [9]", "result": "2945 dpm per mg of tissue"},
      {"measurement": "Radioactivity in iris-cilary body", "setting": "[3]; [9]", "result": "799 dpm per mg of tissue"},
      {"measurement": "Radioactivity in aqueous humor", "setting": "[3]; [10]", "result": "1845 dpm per mg of tissue"},
      {"measurement": "Radioactivity in conjunctiva/sclera", "setting": "[3]; [10]", "result": "5286 dpm per mg of tissue"},
      {"measurement": "Radioactivity in cornea", "setting": "[3]; [10]", "result": "5241 dpm per mg of tissue"},
      {"measurement": "Radioactivity in iris-cilary body", "setting": "[3]; [10]", "result": "2256 dpm per mg of tissue"},
      {"measurement": "Radioactivity in aqueous humor", "setting": "[3]; [11]", "result": "1176 dpm per mg of tissue"},
      {"measurement": "Radioactivity in conjunctiva/sclera", "setting": "[3]; [11]", "result": "2259 dpm per mg of tissue"},
      {"measurement": "Radioactivity in cornea", "setting": "[3]; [11]", "result": "3766 dpm per mg of tissue"},
      {"measurement": "Radioactivity in iris-cilary body", "setting": "[3]; [11]", "result": "1482 dpm per mg of tissue"},
      {"measurement": "Radioactivity in aqueous humor", "setting": "[3]; [12]", "result": "607 dpm per mg of tissue"},
      {"measurement": "Radioactivity in conjunctiva/sclera", "setting": "[3]; [12]", "result": "1673 dpm per mg of tissue"},
      {"measurement": "Radioactivity in cornea", "setting": "[3]; [12]", "result": "1861 dpm per mg of tissue"},
      {"measurement": "Radioactivity in iris-cilary body", "setting": "[3]; [12]", "result": "586 dpm per mg of tissue"},
      {"measurement": "Level reaching the iris-ciliary body from jet and/or stream of droplets relative to eyedrop", "setting": "[3]; 15 minute time point, 200 μg each", "result": "more than double"},
      {"measurement": "Radioactivity in ocular tissues", "setting": "[3]; all ocular tissues, all time points, both treatments", "result": "Significant radioactivity was detected"}
    ]},
    {"molecule": "CC[C@@H]1C(=O)OC[C@@H]1Cc1cncn1C", "note": "[pilocarpine nitrate]", "values": [
      {"measurement": "Drug available for potential systemic absorption", "setting": "[4]; [13]", "result": 25.7, "unit": "µg"},
      {"measurement": "Fraction of drug absorbed into the eye", "setting": "[4]; [13]", "result": 0.41, "unit": "µg"},
      {"measurement": "Drug left to be absorbed systemically", "setting": "[4]; 25 μl drop loaded with 67.8 μg", "result": 67.4, "unit": "µg"},
      {"measurement": "Drug penetrated the eye", "setting": "[4]; 25 μl drop loaded with 67.8 μg", "result": 0.36, "unit": "µg"}
    ]}
  ]
}
